Measured values published in ChEMBL document CHEMBL4725438, “Chiral Analogues of PFI-1 as BET Inhibitors and Their Functional Role in Myeloid Malignancies” (ACS Med Chem Lett, 2020).
Calls of active or inactive are those of the source. No cut-off for these calls is given here.

Assays:
[1] = biological target: Bromodomain-containing protein 4 (Homo sapiens) (UniProt O60885); test: Inhibition of BRD4 in human K562 cells harboring BCR-ABL assessed as decrease in metabolic activity at 10 uM measured after 72 hrs by MTT assay; type: cell-based
[2] = biological target: Bromodomain-containing protein 4 (Homo sapiens) (UniProt O60885); test: Inhibition of BRD4 in human HEL cells harboring JAK2 V617F mutant assessed as decrease in metabolic activity at 10 uM measured after 72 hrs by MTT assay; type: cell-based
[3] = biological target: Bromodomain-containing protein 4 (Homo sapiens) (UniProt O60885); test: Inhibition of BRD4 in human MOLM-14 cells harboring FLT3-ITD mutant assessed as decrease in metabolic activity at 10 uM measured after 72 hrs by MTT assay; type: cell-based
MOLM-14 [4] = test: Inhibition of BET in human MOLM-14 cells harboring FLT3-ITD mutant assessed as increase in HEXIM1 protein expression at 5 uM measured after 24 to 48 hrs by Western blot analysis; type: cell-based; details: time hrs 24-48
MOLM-14 [5] = test: Induction of apoptosis in human MOLM-14 cells harboring FLT3-ITD mutant assessed as cleavage of PARP-1 at 5 uM measured after 24 to 48 hrs by Western blot analysis; type: functional, cell-based; details: time hrs 24-48
[6] = biological target: Bromodomain-containing protein 4 (Homo sapiens) (UniProt O60885); test: Inhibition of BRD4 in human HEL cells harboring JAK2 V617F mutant assessed as metabolic activity at 1 uM measured after 72 hrs by MTT assay relative to control; type: cell-based; design: Activity: scale not given: the % may be the effect or the level left
HEL [7] = test: Inhibition of BET in human HEL cells harboring JAK2 V617F mutant assessed as increase in HEXIM1 protein expression at 5 uM measured after 24 to 48 hrs by Western blot analysis; type: cell-based; details: time hrs 24-48
HEL [8] = test: Induction of apoptosis in human HEL cells harboring JAK2 V617F mutant assessed as cleavage of PARP-1 at 5 uM measured after 24 to 48 hrs by Western blot analysis; type: functional, cell-based; details: time hrs 24-48
K562 [9] = test: Inhibition of BET in human K562 cells harboring BCR-ABL assessed as decrease in AURKB protein expression at 5 uM measured after 48 hrs by Western blot analysis; type: cell-based
MOLM-14 [10] = test: Inhibition of BET in human MOLM-14 cells harboring FLT3-ITD mutant assessed as decrease in AURKB protein expression at 5 uM measured after 48 hrs by Western blot analysis; type: cell-based
MOLM-14 [11] = test: Inhibition of BET in human MOLM-14 cells harboring FLT3-ITD mutant assessed as increase in HEXIM1 protein expression at 5 uM measured after 24 hrs by Western blot analysis; type: cell-based
HEL [12] = test: Inhibition of BET in human HEL cells harboring JAK2 V617F mutant assessed as increase in HEXIM1 protein expression at 5 uM measured after 24 hrs by Western blot analysis; type: cell-based
[13] = biological target: Bromodomain-containing protein 4 (Homo sapiens) (UniProt O60885); test: Inhibition of BRD4 in human MOLM-14 cells harboring FLT3-ITD mutant assessed as metabolic activity at 1 uM measured after 72 hrs by MTT assay relative to control; type: cell-based; design: scale not given: the % may be the effect or the level left
[14] = biological target: Bromodomain-containing protein 4 (Homo sapiens) (UniProt O60885); test: Inhibition of BRD4 in human MOLM-14 cells harboring FLT3-ITD mutant assessed as cell cycle arrest by measuring decrease in cell population at S phase at 1 to 5 uM measured after 24 hrs by propidium iodide staining based FACS analysis; details: dose microM 1-5, time 24.0 hrs
K562 [15] = test: Inhibition of BET in human K562 cells harboring BCR-ABL assessed as increase in HEXIM1 protein expression at 5 uM measured after 24 to 48 hrs by Western blot analysis; type: cell-based; details: time hrs 24-48
K562 [16] = test: Inhibition of BET in human K562 cells harboring BCR-ABL assessed as increase in HEXIM1 protein expression at 5 uM preincubated in medium for 24 to 48 hrs followed by cell addition and measured after 24 hrs by Western blot analysis; type: cell-based; details: time 96.0 hrs
BMMC = test: Anticlonogenic activity against AML patient derived BMMC harboring FLT3-ITD/FLT3-TKD mutant assessed as reduction in colony formation at 1 to 5 uM measured after 7 to 11 days; type: functional, tissue-based; details: Homo sapiens, dose microM 1-5, time day 7-11
[17] = biological target: Bromodomain-containing protein 4 (Homo sapiens) (UniProt O60885); test: Inhibition of BRD4 in human MOLM-14 cells harboring FLT3-ITD mutant assessed as cell cycle arrest by measuring increase in cell population at sub-G1 phase at 1 to 5 uM measured after 24 hrs by propidium iodide staining based FACS analysis; details: dose microM 1-5, time 24.0 hrs
[18] = biological target: Bromodomain-containing protein 4 (Homo sapiens) (UniProt O60885); test: Inhibition of BRD4 in human HEL cells harboring JAK2 V617F mutant assessed as cell cycle arrest by measuring increase in cell population at G0/G1 phase at 1 to 5 uM measured after 24 hrs by propidium iodide staining based FACS analysis; details: dose microM 1-5, time 24.0 hrs
[19] = Cytotoxicity against human PBMC assessed as reduction in colony formation at 1 to 5 uM measured after 7 to 11 days; type: tissue-based; details: dose 1-5 µM, time 7-11 day
[20] = biological target: Bromodomain-containing protein 4 (Homo sapiens) (UniProt O60885); test: Inhibition of BRD4 in human K562 cells harboring BCR-ABL assessed as reduction in cell proliferation at 1 to 5 uM after 72 hrs by tryphan blue staining based assay; details: dose microM 1-5, time 72.0 hrs
HEL [21] = test: Inhibition of BET in human HEL cells harboring JAK2 V617F mutant assessed as decrease in AURKB protein expression at 5 uM measured after 24 to 48 hrs by Western blot analysis; type: cell-based; details: time hrs 24-48
HEL [22] = test: Inhibition of BET in human HEL cells harboring JAK2 V617F mutant assessed as increase in HEXIM1 protein expression at 5 uM preincubated in medium for 24 to 48 hrs followed by cell addition and measured after 24 hrs by Western blot analysis; type: cell-based; details: time 96.0 hrs
[23] = biological target: Bromodomain-containing protein 4 (Homo sapiens) (UniProt O60885); test: Binding affinity to N-terminal His-tagged human recombinant BRD4 bromodomain 1 (44-170 residues) expressed in Escherichia coli assessed as change in melting temperature at 10 uM by BromoMELT assay
[24] = Cytotoxicity against human CD34+ cells assessed as reduction in colony formation at 1 to 5 uM measured after 7 to 11 days; type: cell-based; details: cd34-positive (myeloid/lymphoid) cell, dose 1-5 µM, time 7-11 day
[25] = biological target: Bromodomain-containing protein 4 (Homo sapiens) (UniProt O60885); test: Inhibition of BRD4 in human MOLM-14 cells harboring FLT3-ITD mutant assessed as cell cycle arrest by measuring increase in cell population at G0/G1 phase at 1 to 5 uM measured after 24 hrs by propidium iodide staining based FACS analysis; details: dose microM 1-5, time 24.0 hrs
MOLM-14 [26] = test: Inhibition of BET in human MOLM-14 cells harboring FLT3-ITD mutant assessed as decrease in AURKB protein expression at 5 uM measured after 24 to 48 hrs by Western blot analysis; type: cell-based; details: time hrs 24-48
[27] = biological target: Bromodomain-containing protein 4 (Homo sapiens) (UniProt O60885); test: Inhibition of BRD4 in human HEL cells harboring JAK2 V617F mutant assessed as reduction in cell proliferation at 1 to 5 uM after 72 hrs by tryphan blue staining based assay; details: dose microM 1-5, time 72.0 hrs
[28] = biological target: Bromodomain-containing protein 4 (Homo sapiens) (UniProt O60885); test: Inhibition of BRD4 in human MOLM-14 cells harboring FLT3-ITD mutant assessed as reduction in cell proliferation at 1 to 5 uM after 72 hrs by tryphan blue staining based assay; details: dose microM 1-5, time 72.0 hrs
[29] = biological target: Bromodomain-containing protein 4 (Homo sapiens) (UniProt O60885); test: Inhibition of BRD4 in human HEL cells harboring JAK2 V617F mutant assessed as cell cycle arrest by measuring increase in cell population at sub-G1 phase at 1 to 5 uM measured after 24 hrs by propidium iodide staining based FACS analysis; details: dose microM 1-5, time 24.0 hrs
[30] = biological target: Bromodomain-containing protein 4 (Homo sapiens) (UniProt O60885); test: Inhibition of BRD4 in human HEL cells harboring JAK2 V617F mutant assessed as cell viability at 5 uM measured after 72 hrs by tryphan blue staining based assay relative to control
[31] = biological target: Bromodomain-containing protein 4 (Homo sapiens) (UniProt O60885); test: Inhibition of BRD4 in human K562 cells harboring BCR-ABL assessed as decrease in metabolic activity at 0.01 to 20 uM measured after 72 hrs by MTT assay; type: cell-based; details: dose microM 0.01-20, time 72.0 hrs
K562 [32] = test: Induction of apoptosis in human K562 cells harboring BCR-ABL assessed as cleavage of PARP-1 at 5 uM measured after 24 to 48 hrs by Western blot analysis; type: functional, cell-based; details: time hrs 24-48
[33] = biological target: Bromodomain-containing protein 4 (Homo sapiens) (UniProt O60885); test: Inhibition of BRD4 in human MOLM-14 cells harboring FLT3-ITD mutant assessed as cell viability at 5 uM measured after 72 hrs by tryphan blue staining based assay relative to control
[34] = biological target: Bromodomain-containing protein 4 (Homo sapiens) (UniProt O60885); test: Inhibition of BRD4 in human HEL cells harboring JAK2 V617F mutant assessed as cell cycle arrest by measuring decrease in cell population at S phase at 1 to 5 uM measured after 24 hrs by propidium iodide staining based FACS analysis; details: dose microM 1-5, time 24.0 hrs
MOLM-14 [35] = test: Inhibition of BET in human MOLM-14 cells harboring FLT3-ITD mutant assessed as increase in HEXIM1 protein expression at 5 uM preincubated in medium for 24 to 48 hrs followed by cell addition and measured after 24 hrs by Western blot analysis; type: cell-based; details: time 96.0 hrs
[36] = biological target: Bromodomain-containing protein 2 (Homo sapiens) (UniProt P25440); test: Binding affinity to N-terminal His-tagged human recombinant BRD2 bromodomain 1 (71 to 194 residues) expressed in Escherichia coli assessed as change in melting temperature at 10 uM by BromoMELT assay
Sequence of Bromodomain-containing protein 2 (Homo sapiens) (P25440 whole entry, looked up, the tested form may be a part): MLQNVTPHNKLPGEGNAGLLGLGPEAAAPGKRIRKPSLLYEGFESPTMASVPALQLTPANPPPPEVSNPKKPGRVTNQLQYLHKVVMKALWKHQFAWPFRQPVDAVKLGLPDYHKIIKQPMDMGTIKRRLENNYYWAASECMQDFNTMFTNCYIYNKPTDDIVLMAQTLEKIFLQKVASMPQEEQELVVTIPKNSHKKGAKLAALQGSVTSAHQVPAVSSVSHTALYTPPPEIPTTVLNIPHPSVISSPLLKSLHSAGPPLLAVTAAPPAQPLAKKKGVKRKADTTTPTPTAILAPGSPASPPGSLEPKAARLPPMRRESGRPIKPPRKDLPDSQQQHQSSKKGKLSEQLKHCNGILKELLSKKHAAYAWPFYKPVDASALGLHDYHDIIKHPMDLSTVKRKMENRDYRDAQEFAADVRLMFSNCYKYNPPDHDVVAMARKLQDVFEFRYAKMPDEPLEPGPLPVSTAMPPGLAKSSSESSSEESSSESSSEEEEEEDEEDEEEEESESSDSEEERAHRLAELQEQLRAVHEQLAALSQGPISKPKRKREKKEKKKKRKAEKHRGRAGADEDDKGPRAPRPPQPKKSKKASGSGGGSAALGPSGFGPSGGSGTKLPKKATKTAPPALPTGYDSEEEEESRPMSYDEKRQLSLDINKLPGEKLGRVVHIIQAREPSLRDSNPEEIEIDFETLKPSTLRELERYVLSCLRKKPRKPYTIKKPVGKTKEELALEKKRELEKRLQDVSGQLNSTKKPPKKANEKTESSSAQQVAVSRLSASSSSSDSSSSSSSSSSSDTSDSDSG

COc1ccccc1S(C)(=O)=Nc1ccc2c(c1)CN(C)C(=O)N2 (stereo unspecified)
inhibition [1]: inactive | inhibition [2]: Active | inhibition [3]: Active

CN=S(C)(=Nc1ccc2c(c1)CN(C)C(=O)N2)c1ccccc1 (stereo unspecified)
inhibition [1]: inactive | inhibition [2]: Active | inhibition [3]: Active

CN1Cc2cc(N=[S@](C)(=O)c3ccccc3)ccc2NC1=O
inhibition (MOLM-14 [4]): inactive | Activity (MOLM-14 [5]): inactive | inhibition [6]: inactive | inhibition (HEL [7]): inactive | Activity (HEL [8]): inactive | inhibition (K562 [9]): Active | inhibition (MOLM-14 [10]): Active

CN1Cc2cc(N=[S@@](C)(=O)c3ccccc3)ccc2NC1=O
inhibition (MOLM-14 [11]): Active | inhibition (HEL [12]): Active | Activity [13]: 55% | inhibition [14]: Active | inhibition (K562 [15]): Active | inhibition (K562 [16]): Active | Activity (BMMC): Active | inhibition [17]: Active | inhibition [18]: Active | Activity [19]: Toxic | inhibition [20]: Active | inhibition (HEL [21]): Active | inhibition (HEL [22]): Active | ΔTm [23]: 5 °C | Activity (MOLM-14 [5]): Active | Activity [24]: Toxic | inhibition [25]: Active | inhibition (MOLM-14 [26]): Active | Activity [6]: 37% | inhibition [27]: Active | inhibition [28]: Active | inhibition [29]: Active | Activity (HEL [8]): Active | Activity [30]: 55% | inhibition [31]: inactive | Activity (K562 [32]): inactive | Activity [33]: 57% | inhibition [34]: Active | inhibition (MOLM-14 [35]): Active | ΔTm [36]: 3.5 °C

CN1Cc2cc(N=S(C)(=N)c3ccccc3)ccc2NC1=O (stereo unspecified)
inhibition [1]: inactive | inhibition [2]: Active | inhibition [3]: Active

COc1ccccc1S(=O)(=O)Nc1ccc2c(c1)CN(C)C(=O)N2
inhibition (MOLM-14 [11]): Active | inhibition (HEL [12]): Active | inhibition (K562 [15]): Active | Activity (BMMC): Active | Activity [19]: Toxic | Activity [24]: Toxic | ΔTm [36]: 3.5 °C

CN1Cc2cc(N=S(C)(=Nc3ccccc3)c3ccccc3)ccc2NC1=O (stereo unspecified)
inhibition [1]: inactive | inhibition [2]: Active | inhibition [3]: Active
